Reference: patent US6683072B1, “Compositions and methods for treatment of irritable bowel syndrome and nonulcer dyspepsia” (Vela Pharmaceuticals, Inc., priority 2003, dated 2004)

Tested on: colonic propulsive motility in mice
Assay: Glass bead test of colonic propulsive motility in mice
Conditions: for Expulsion Time (min.) Mean ± SEM: 3 mm glass bead inserted 30 min after dosing, female Swiss Webster mice

Row | Structure (SMILES) | Expulsion Time (min.) Mean ± SEM (10 mg/kg PO) [min] | inhibition at 10 mg/kg (Mus musculus, po) [%] | Expulsion Time (min.) Mean ± SEM (30 mg/kg PO) [min] | effect compared with 10 mg/kg dose of loperamide (30 mg/kg tianeptine PO) | Expulsion Time (min.) Mean ± SEM (60 mg/kg PO) [min] | effect on colonic propulsion (in words) (10, 30 and 60 mg/kg PO) | inhibition at 30 mg/kg (Mus musculus, po) [%] | inhibition at 60 mg/kg (Mus musculus, po) [%]
1 | CN(C)C(=O)C(CCN1CCC(O)(c2ccc(Cl)cc2)CC1)(c1ccccc1)c1ccccc1 [loperamide] | 26.0 ± 2.6 | 81 |  |  |  |  |  | 
2 | CN1c2ccccc2C(NCCCCCCC(=O)O)c2ccc(Cl)cc2S1(=O)=O (stereo not shown) [tianeptine, 7-[(3-chloro-6,11-dihydro-6-methyl-dibenzo[c,f][1,2]thiazepin-11-yl)amino] heptanoic acid S,S-dioxide] | 16.6 ± 3.6 | 38 | 25.7 ± 2.3 | equivalent in effect to a 10 mg/kg dose of loperamide | 29.8 ± 0.2 | dose-related inhibition of colonic propulsion | 80 | 98
